Values quoted from earlier work as cited in US20190216952A1, “Method for substantiating validating products for environmental safety” (priority 2018, published 2019).

Assays:
[1] = tested on: coral; conditions: Danovaro et al 2008
[2] = tested on: coral; conditions: Downs et al

## Cc1ccc(C=C2C(=O)C3(C)CCC2C3(C)C)cc1 (centres unmarked) [4-Methylbenzylidene Camphor]
[1]
  coral bleaching/death: caused coral bleaching/death

## CCCCOC(=O)c1ccc(O)cc1 [Butylparaben]
[1]
  coral bleaching/death: caused coral bleaching/death

## CCCCC(CC)COC(=O)C=Cc1ccc(OC)cc1 (centres unmarked) [Octinoxate]
[1]
  coral bleaching/death: caused coral bleaching/death

## COc1ccc(C(=O)c2ccccc2)c(O)c1 [Oxybenzone]
[2]
  toxicity in coral: toxicity
[1]
  coral bleaching/death: caused coral bleaching/death
